Results from ChEMBL document CHEMBL4706492, “[1,2,3]Triazolo[4,5-d]pyrimidine derivatives incorporating (thio)urea moiety as a novel scaffold for LSD1 inhibitors” (Eur J Med Chem, 2020).

Tests used:
[1] = tested on: B16-F10; assay: cells; conditions: Mus musculus, B16-F10, 48 h
Description: Cytotoxicity against mouse B16-F10 cells assessed as reduction in cell viability after 48 hrs by MTT assay

[2] = tested on: ECa-109 cell line; assay: cells; conditions: Homo sapiens, ECa-109, 48 h
Description: Cytotoxicity against human EC-109 cells assessed as reduction in cell viability after 48 hrs by MTT assay

[3] = tested on: MGC-803; assay: cells; conditions: Homo sapiens, MGC-803, 48 h
Description: Cytotoxicity against human MGC-803 cells assessed as reduction in cell viability after 48 hrs by MTT assay

[4] = tested on: PC-3; assay: cells; conditions: Homo sapiens, PC-3, 48 h
Description: Cytotoxicity against human PC-3 cells assessed as reduction in cell viability after 48 hrs by MTT assay

[5] = target: T1, MAO-A (Homo sapiens, UniProt P21397); assay: Inhibition of MAO-A (unknown origin) at 20 uM relative to control
T1 sequence (P21397 whole entry): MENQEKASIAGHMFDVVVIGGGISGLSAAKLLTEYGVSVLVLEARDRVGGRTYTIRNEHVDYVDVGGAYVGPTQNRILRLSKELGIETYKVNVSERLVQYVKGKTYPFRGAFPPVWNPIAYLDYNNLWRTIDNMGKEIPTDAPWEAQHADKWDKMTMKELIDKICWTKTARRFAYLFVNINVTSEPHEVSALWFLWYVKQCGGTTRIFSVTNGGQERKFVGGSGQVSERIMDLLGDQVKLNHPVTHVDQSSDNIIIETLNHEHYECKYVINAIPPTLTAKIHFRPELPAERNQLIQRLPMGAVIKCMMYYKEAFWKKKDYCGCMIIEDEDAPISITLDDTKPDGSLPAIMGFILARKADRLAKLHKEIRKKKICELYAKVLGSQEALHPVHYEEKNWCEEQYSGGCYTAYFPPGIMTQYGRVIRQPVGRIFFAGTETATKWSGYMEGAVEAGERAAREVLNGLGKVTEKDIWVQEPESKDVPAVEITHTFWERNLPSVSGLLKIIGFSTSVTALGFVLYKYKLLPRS

[6] = target: T2, Lysine-specific histone demethylase 1A (Homo sapiens, UniProt O60341); assay: Inhibition of LSD1 in human MGC803 assessed as reduction in H3K4me2 protein expression incubated for 24 hrs by Western blot analysis; conditions: MGC-803, dose 10-40 µM
[7] = target: T3, MAO-B (Homo sapiens, UniProt P27338); assay: Inhibition of MAO-B (unknown origin) at 20 uM relative to control
T3 sequence (P27338 whole entry): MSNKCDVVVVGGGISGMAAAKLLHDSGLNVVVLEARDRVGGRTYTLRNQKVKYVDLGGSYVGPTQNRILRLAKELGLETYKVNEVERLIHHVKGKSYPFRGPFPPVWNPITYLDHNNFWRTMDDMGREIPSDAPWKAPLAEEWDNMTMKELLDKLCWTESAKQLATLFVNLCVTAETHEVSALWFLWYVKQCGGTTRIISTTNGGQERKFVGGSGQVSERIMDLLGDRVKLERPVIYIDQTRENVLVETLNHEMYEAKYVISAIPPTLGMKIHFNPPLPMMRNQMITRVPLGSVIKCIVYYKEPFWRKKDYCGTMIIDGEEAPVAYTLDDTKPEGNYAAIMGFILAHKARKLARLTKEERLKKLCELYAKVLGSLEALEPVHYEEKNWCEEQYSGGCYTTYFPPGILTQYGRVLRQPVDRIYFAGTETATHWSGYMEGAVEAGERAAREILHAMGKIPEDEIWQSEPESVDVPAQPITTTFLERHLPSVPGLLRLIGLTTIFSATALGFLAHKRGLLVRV

[8] = target: Cyclin-dependent kinase 6 (Homo sapiens) (UniProt Q00534); assay: Inhibition of CDK6 (unknown origin) at 20 uM relative to control
[9] = target: Cyclin-dependent kinase 1 (Homo sapiens) (UniProt P06493); assay: Inhibition of CDK1 (unknown origin) at 20 uM relative to control
[10] = target: Cyclin-dependent kinase 2 (Homo sapiens) (UniProt P24941); assay: Inhibition of CDK2 (unknown origin) at 20 uM relative to control
[11] = target: Tyrosine-protein kinase BTK (Homo sapiens) (UniProt Q06187); assay: Inhibition of BTK (unknown origin) at 20 uM relative to control
[12] = target: T2, Lysine-specific histone demethylase 1A; assay: biochemical
Description: Inhibition of recombinant human LSD1 (157 to 852 residues) expressed in Escherichia coli BL21 (DE) cells using H3K4me2 substrate incubated for 30 mins by amplex red assay

[13] = target: T2, Lysine-specific histone demethylase 1A

Chain of Cyclin-dependent kinase 1 (Homo sapiens) (P06493 whole entry, looked up): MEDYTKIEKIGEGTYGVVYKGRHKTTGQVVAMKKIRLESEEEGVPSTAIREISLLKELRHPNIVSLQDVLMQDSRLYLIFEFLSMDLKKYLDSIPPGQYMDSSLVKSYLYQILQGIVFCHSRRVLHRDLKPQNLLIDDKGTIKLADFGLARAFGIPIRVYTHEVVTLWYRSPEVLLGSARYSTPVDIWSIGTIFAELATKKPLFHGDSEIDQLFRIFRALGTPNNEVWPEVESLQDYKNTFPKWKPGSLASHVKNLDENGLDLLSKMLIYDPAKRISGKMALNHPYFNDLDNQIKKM
Chain of Tyrosine-protein kinase BTK (Homo sapiens) (Q06187 whole entry): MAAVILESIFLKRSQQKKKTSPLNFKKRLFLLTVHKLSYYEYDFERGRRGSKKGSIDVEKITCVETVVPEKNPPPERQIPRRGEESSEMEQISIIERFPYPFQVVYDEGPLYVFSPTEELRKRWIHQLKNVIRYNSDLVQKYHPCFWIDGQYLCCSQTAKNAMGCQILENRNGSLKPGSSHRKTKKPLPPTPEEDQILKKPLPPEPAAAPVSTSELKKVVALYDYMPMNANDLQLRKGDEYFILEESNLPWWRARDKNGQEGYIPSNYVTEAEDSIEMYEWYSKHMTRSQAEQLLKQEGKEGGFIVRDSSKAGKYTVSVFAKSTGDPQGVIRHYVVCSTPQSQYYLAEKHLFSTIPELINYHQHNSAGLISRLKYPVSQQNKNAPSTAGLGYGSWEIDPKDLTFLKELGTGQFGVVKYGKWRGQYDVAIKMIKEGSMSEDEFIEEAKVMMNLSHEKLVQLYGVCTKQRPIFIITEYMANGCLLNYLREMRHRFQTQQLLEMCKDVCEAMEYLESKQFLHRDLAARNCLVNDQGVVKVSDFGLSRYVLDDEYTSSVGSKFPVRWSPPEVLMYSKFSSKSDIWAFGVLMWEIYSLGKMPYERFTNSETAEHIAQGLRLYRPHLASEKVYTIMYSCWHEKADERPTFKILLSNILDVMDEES
Chain of Cyclin-dependent kinase 6 (Homo sapiens) (Q00534 whole entry): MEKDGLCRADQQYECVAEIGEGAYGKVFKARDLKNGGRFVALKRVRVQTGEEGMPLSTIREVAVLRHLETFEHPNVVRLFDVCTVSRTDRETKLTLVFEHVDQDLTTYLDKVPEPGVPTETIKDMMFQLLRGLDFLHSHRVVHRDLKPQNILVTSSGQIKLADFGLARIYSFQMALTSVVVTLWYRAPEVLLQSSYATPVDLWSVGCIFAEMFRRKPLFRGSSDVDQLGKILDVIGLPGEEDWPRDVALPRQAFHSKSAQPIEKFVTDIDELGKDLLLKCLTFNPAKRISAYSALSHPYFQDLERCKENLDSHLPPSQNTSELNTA

IC50 [1] [µM] | IC50 [2] [µM] | IC50 [3] [µM] | IC50 [4] [µM] | inhibition at 20 µM [5] [%] | inhibition [6] | inhibition at 20 µM [7] [%] | inhibition [8] [%] | inhibition [9] [%] | inhibition [10] [%] | inhibition [11] [%] | IC50 [12] [µM] | Ratio IC50 [13] | SMILES
14.2 | > 64 | 26 | 23.4 |  |  |  |  |  |  |  |  |  | CCCSc1nc2c(nnn2CCNC(=S)Nc2ccccc2Cl)c(=O)[nH]1
> 64 | 19.7 | 20.7 | 15.6 |  |  |  |  |  |  |  |  |  | CCCSc1nc2c(nnn2CCNC(=S)Nc2ccc(OC)cc2)c(=O)[nH]1
> 64 | > 64 | 46.3 | 25.5 |  |  |  |  |  |  |  |  |  | CCCSc1nc2c(nnn2CCNC(=S)NCc2ccccc2)c(=O)[nH]1
11.5 | 9.88 | 8.3 | 9.15 | 3.9 | Dose-dependent effect | 11.8 | 20 | < 10 | < 10 | < 10 | 9.75 | 3 | CCCSc1nc2c(nnn2CCNC(=S)Nc2cccc3ccccc23)c(=O)[nH]1
